Among the data in US10639303B2, “Alkaloids and their preparation and application as anti-HSV-1 agents” (OCEAN UNIVERSITY OF CHINA, priority 2015, dated 2020) are CC50 and IC50 values, retold here.

Read-outs that look alike come from different tables or passages of the source.

Data set [1] can be described thus: cytotoxicity (TC50) accompanying the CPE assay. It counts as cell-based. Conditions: human.
The test system of a further data set is HSV-1. Nature of the data set: cytopathic effects (CPE) assay, antiviral activity against HSV-1 in Hep-2 cells. The data set is classed as cell-based, Herpes Simplex Virus 1. Conditions: Human alphaherpesvirus 1; HSV-1-infected Hep-2 cells, neutral red OD 540 nm, Reed-Muench; read-out: IC50 (anti-HSV-1 activity). Here is the method:
The antiviral activities against HSV-1 were evaluated by a cytopathic effects (CPE) assay. Hep-2 monolayer cells were cultured with trypsin enzyme-digesting technique and transferred to 96-well plates. The HSV-1 virus was seeded in Hep-2 cells in 96-well plates, with 2% RPMI-1640 medium, and incubated at 37° C., 5% CO2. After more than 90% lesions, the virus-infected cells were repeatedly frozen and thawed 3 times, centrifuged, quantitative packed and stored at −80° C. Each tested compound was dissolved in 10 μl DMSO to make a homogeneous solution and the solution was diluted 10 times by half-and-half dilution with 2% RPMI-1640 medium. The gradient solution was added to the infected cells incubated in 96-well plates, Ribavirin was used as positive control. Normal cells were used as blank control. Infected cells were used as negative control. All samples were incubated at 37° C., 5% CO2. Pathological changes were observed once every hour, for 24 h. After 90% lesions in negative control, 1% neutral red was added after removal of liquid in 96-well plates. The OD value was determined at 540 nm. IC50 values of tested compounds were calculated by Reed-Muench methods.

In the case of `C=C(C)[C@@H]1CC[C@](C)(/C=C/c2ccc3c(c2O)[C@@](O)(c2ccccc2)[C@H](OC)C(=O)N3)O1`, in data set [1], the CC50 at 24 h stood at 64.9 µM. In addition, the IC50 in the data set with HSV-1 came out at 0.07 µM.

`CO[C@@H]1C(=O)Nc2ccc(/C=C/[C@]3(C)CC[C@H](O)[C@@H](C)C3)c(O)c2[C@@]1(O)c1ccccc1` showed a CC50 at 24 h in data set [1] of 36.9 µM. The IC50 with HSV-1 was determined as 0.21 µM.

Regarding `NC(=O)c1ncn([C@@H]2O[C@H](CO)[C@@H](O)[C@H]2O)n1` [Ribavirin, reference compound], the CC50 at 24 h in data set [1] (Hep-2 cells, read-out: TC50) is more than 10000 µM. Further, the IC50 in the data set with HSV-1 is 78 µM.

In general, IC50 refers to the point on the concentration scale where inhibition reaches its midpoint.
